Literature values in US20220160758A1, “ANTIVIRAL, ANTIBACTERIAL AND/OR ANTI FUNGAL COMPOSITIONS, APPLICATIONS AND THERAPY” (AVITAS BIO CORP., priority 2020, published 2022).

Tests used:
[1] = system: gram-positive and gram-negative microorganisms; details: at the concentrations tested
bacteriophage PR4 = details: in vitro

Row | Compound | growth inhibition [1] | inhibition of viral replication (bacteriophage PR4) | inactivating the virus (bacteriophage)
1 | CCCCC/C=C\C/C=C\C/C=C\C/C=C\CCCC(=O)O [arachidonic acid] | not inhibitory | moderately effective | 
2 | CCCCCC/C=C\CCCCCCCC(=O)O [palmitoleic acid] |  | most effective | 
3 | CCCCCCCC/C=C\CCCCCCCC(=O)O [oleic acid] |  | most effective | most effective
